Biological target: Recombinant human HSD17B13 enzyme (Homo sapiens (Human), UniProt Q7Z5P4)
Test: HSD17b13 NAD(P)H-Glo Biochemical Assay
Settings: for IC50: 50 uM estradiol, 1 mM NAD+, read-out: HSD17β13 IC50; for inhibition at 30 µM: read-out: HSD17β13 inhibition at 30 uM
Outline: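 Recombinant human HSD17B13 was pre-incubated with inhibitor for 20 min at RT in 20 mM Tris pH 7.4 with 0.002% Tween-20 and 0.02% BSA. Reaction then ran with 50 uM estradiol and 1 mM NAD+ (final) for 3 h at 37° C. NADH formed was detected by NAD(P)H-Glo luminescence after 1 h at RT.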

Recombinant human HSD17B13 enzyme, sequence (Q7Z5P4 20-300): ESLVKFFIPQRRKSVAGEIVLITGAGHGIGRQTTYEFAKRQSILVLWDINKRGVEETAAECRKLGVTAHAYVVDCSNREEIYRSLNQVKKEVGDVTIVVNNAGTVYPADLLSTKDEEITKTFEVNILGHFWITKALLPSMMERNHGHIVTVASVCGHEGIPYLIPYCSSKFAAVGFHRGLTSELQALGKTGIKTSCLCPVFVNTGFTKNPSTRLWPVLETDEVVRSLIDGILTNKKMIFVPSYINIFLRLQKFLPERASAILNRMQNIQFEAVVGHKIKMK

Row | SMILES | IC50 [nM] | further results
1 | Oc1c(F)c(-n2cnc3cc(N4CCOCC45CC5)ncc32)cc(C(F)(F)F)c1F [Compound 21.60, 3-(6-(7-Oxa-4-azaspiro[2.5]-octan-4-yl)-3H-imidazo[4,5-c]pyridin-3-yl)-2,6-difluoro-5-(trifluoromethyl)phenol] | 1000 to 30000 | –
2 | CS(=O)(=O)N1CCN(c2ccc3c(c2)cc(C(=O)O)n3-c2ccc(F)c(O)c2)CC1 [Compound 21.61, 1-(4-Fluoro-3-hydroxyphenyl)-5-(4-(methylsulfonyl)piperazin-1-yl)-1H-indole-2-carboxylic acid] | – | inhibition at 30 µM: < 20%
3 | COC(=O)c1cc2cc(N3CCN(S(C)(=O)=O)CC3)ccc2n1-c1ccc(F)c(O)c1 [Compound 21.62, Methyl 1-(4-fluoro-3-hydroxy-phenyl)-5-(4-(methylsulfonyl)-piperazin-1-yl)-1H-indole-2-carboxylate] | – | inhibition at 30 µM: < 20%
4 | Cc1nc2cc(N3CCOCC34CC4)ncc2n1-c1cc(C(F)(F)F)c(F)c(O)c1F [Compound 21.63, 2,6-Difluoro-3-(2-methyl-6-(7-oxa-4-azaspiro[2.5]octan-4-yl)-3H-imidazo[4,5-c]pyridin-3-yl)-5-(trifluoromethyl)phenol] | – | inhibition at 10 µM (read-out: HSD17β13 inhibition at 10 uM): < 20%
5 | COc1ccc(Nc2ccc3c(cnn3-c3ccc(F)c(O)c3)c2)cc1Cl [Compound 22, 5-(5-((3-Chloro-4-methoxyphenyl)amino)-1H-indazol-1-yl)-2-fluorophenol] | 100 to 1000 | –
6 | Oc1cc(-n2ncc3cc(Nc4ccc(O)c(Cl)c4)ccc32)ccc1F [Compound 23, 2-Chloro-4-((1-(4-fluoro-3-hydroxyphenyl)-1H-indazol-5-yl)amino)phenol] | 100 to 1000 | –
7 | CC(=O)N1CCC(Oc2ccc3c(cnn3-c3cc(O)c(F)c(F)c3)c2)CC1 [Compound 24, 1-(4-((1-(3,4-Difluoro-5-hydroxyphenyl)-1H-indazol-5-yl)oxy)piperidin-1-yl)ethan-1-one] | 1000 to 30000 | –

The next lines start with results.

Row | IC50 [nM] | SMILES | further results
8 | < 100 | CS(=O)(=O)N1CCN(c2cc3c(F)nn(-c4cc(O)c(F)c(C(F)(F)F)c4)c3cn2)CC1 [Compound 21.53, 2-Fluoro-5-(3-fluoro-5-(4-(methylsulfonyl)piperazin-1-yl)-1H-pyrazolo[3,4-c]pyridin-1-yl)-3-(trifluoromethyl)phenol] | –
9 | 100 to 1000 | Oc1cc(-n2ncc3cc(N4CCOCC45CC5)ncc32)cc(C(F)(F)F)c1F [Compound 21.54, 5-(5-(7-Oxa-4-azaspiro[2.5]-octan-4-yl)-1H-pyrazolo[3,4-c]pyridin-1-yl)-2-fluoro-3-(trifluoromethyl)phenol] | –
10 | 100 to 1000 | C[C@@H]1COCCN1c1cc2cnn(-c3cc(O)c(F)c(C(F)(F)F)c3)c2cn1 [Compound 21.55, (R)-2-Fluoro-5-(5-(3-methyl-morpholino)-1H-pyrazolo[3,4-c]pyridin-1-yl)-3-(trifluoro-methyl)phenol] | –
11 | 100 to 1000 | C[C@H]1COCCN1c1cc2cnn(-c3cc(O)c(F)c(C(F)(F)F)c3)c2cn1 [Compound 21.56, (S)-2-Fluoro-5-(5-(3-methyl-morpholino)-1H-pyrazolo[3,4-c]pyridin-1-yl)-3-(trifluoro-methyl)phenol] | –
12 | 100 to 1000 | Oc1cc(-n2ncc3cc(N4CCOCC4)ncc32)cc(C(F)(F)F)c1F [Compound 21.57, 2-Fluoro-5-(5-morpholino-1H-pyrazolo[3,4-c]pyridin-1-yl)-3-(trifluoromethyl)phenol] | –
13 | 100 to 1000 | CN(c1ccc2c(c1)c(F)nn2-c1cc(C(F)(F)F)c(F)c(O)c1F)C1CCOCC1 [Compound 21.58, 2,6-Difluoro-3-(3-fluoro-5-(methyl(tetrahydro-2H-pyran-4-yl)amino)-1H-indazol-1-yl)-5-(trifluoromethyl)phenol] | –
14 | 100 to 1000 | Oc1c(F)c(-n2nnc3cc(N4CCOCC45CC5)ncc32)cc(C(F)(F)F)c1F [Compound 21.59, 3-(6-(7-Oxa-4-azaspiro[2.5]-octan-4-yl)-3H-[1,2,3]triazolo-[4,5-c]pyridin-3-yl)-2,6-difluoro-5-(trifluoromethyl)-phenol] | –
